Experimental data taken from ChEMBL document CHEMBL4219131, “Design and synthesis of estrogen receptor ligands with a 4-heterocycle-4-phenylheptane skeleton” (Bioorg Med Chem, 2018).
Each block holds one compound with its values, some of them ahead of it. Activity calls are given as the source filed them. No cut-off for these calls is given here.

Legend:
[1] = molecular target: T1, Estrogen receptor (Homo sapiens) (UniProt P03372); experiment: Agonist activity at recombinant human GAL4-fused ERalpha expressed in HEk293 cells at 30 uM by luciferase reporter gene assay; format: cell-based
T1 sequence (whole entry): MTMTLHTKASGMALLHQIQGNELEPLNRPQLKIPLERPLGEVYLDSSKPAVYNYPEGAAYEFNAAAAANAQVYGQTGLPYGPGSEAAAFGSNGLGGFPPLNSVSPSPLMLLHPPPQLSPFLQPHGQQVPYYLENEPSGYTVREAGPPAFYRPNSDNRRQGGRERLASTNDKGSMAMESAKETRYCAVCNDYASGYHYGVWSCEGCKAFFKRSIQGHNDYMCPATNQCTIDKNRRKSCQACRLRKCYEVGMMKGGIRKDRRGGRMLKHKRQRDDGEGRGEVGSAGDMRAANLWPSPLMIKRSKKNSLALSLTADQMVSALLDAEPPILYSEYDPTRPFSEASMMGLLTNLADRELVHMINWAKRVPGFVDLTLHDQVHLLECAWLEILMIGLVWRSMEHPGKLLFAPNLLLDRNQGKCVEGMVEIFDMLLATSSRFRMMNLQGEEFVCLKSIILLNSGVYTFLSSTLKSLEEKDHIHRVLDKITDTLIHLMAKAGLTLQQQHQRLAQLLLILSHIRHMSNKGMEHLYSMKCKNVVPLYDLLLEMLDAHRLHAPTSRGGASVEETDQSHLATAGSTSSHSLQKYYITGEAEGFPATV

[2] = molecular target: T1, Estrogen receptor (Homo sapiens); experiment: Antagonist activity at ERalpha (unknown origin) expressed in human MCF7 cells assessed as inhibition of E2-induced response at 10 uM by dual luciferase reporter gene assay; format: cell-based
Estrogen receptor [3] = molecular target: T2, Estrogen receptor (Homo sapiens, UniProt P03372); experiment: biochemical
T2 sequence (P03372 whole entry): T1 sequence (whole entry)
Description: Displacement of Fluormone ES2 from full length recombinant human untagged ERalpha expressed in Sf insect cells by fluorescence polarization assay

Estrogen receptor [4] = molecular target: T2, Estrogen receptor; experiment: Agonist activity at recombinant human GAL4-fused ERalpha expressed in HEk293 cells by luciferase reporter gene assay; format: cell-based
Estrogen receptor [5] = molecular target: T2, Estrogen receptor
Description: Antagonist activity at ERalpha (unknown origin) expressed in human MCF7 cells assessed as inhibition of E2-induced response by dual luciferase reporter gene assay

SMILES: CCCC(CCC)(c1ccc(O)c(C)c1)c1ccc(C(=O)OCC)n1C
- Activity [1]: inactive
- inhibition [2]: 41%
- IC50 (Estrogen receptor [3]): 1040 nM

SMILES: CCCC(CCC)(c1ccc(O)c(C)c1)c1c[nH]c2cc(OCc3ccccc3)ccc12
- Activity [1]: inactive
- inhibition [2]: 44%
- IC50 (Estrogen receptor [3]): 613 nM

SMILES: CCCC(CCC)(c1ccc(O)c(C)c1)c1ccc(C(=O)O)[nH]1
- Activity [1]: inactive
- inhibition [2]: inactive
- IC50 (Estrogen receptor [3]): > 10000 nM

SMILES: CCCC(CCC)(c1ccc(O)c(C)c1)c1c[nH]c2cccc(OCc3ccccc3)c12
- Activity [1]: inactive
- inhibition [2]: inactive
- IC50 (Estrogen receptor [3]): > 10000 nM

SMILES: CCCC(CCC)(c1ccc(O)c(C)c1)c1ccc(C(=O)O)n1C
- Activity [1]: inactive
- inhibition [2]: inactive
- IC50 (Estrogen receptor [3]): > 10000 nM

SMILES: CCCC(CCC)(c1ccc(O)c(C)c1)c1ccc(C(=O)OCC)[nH]1
- Activity [1]: inactive
- IC50 (Estrogen receptor [5]): 450 nM
- IC50 (Estrogen receptor [3]): 195 nM

Further lines, results first:

- Activity [1]: inactive
SMILES: CCCC(CCC)(c1ccc(O)c(C)c1)c1ccc(O)c(C)c1

- EC50 (Estrogen receptor [4]): > 30000 nM
- inhibition [2]: inactive
- IC50 (Estrogen receptor [3]): 4680 nM
SMILES: CCCC(CCC)(c1ccc(O)c(C)c1)c1cccs1

- EC50 (Estrogen receptor [4]): > 30000 nM
- inhibition [2]: inactive
- IC50 (Estrogen receptor [3]): 1130 nM
SMILES: CCCC(CCC)(c1ccc(O)c(C)c1)c1cc(C)cs1
